Data taken from patent publication US20230295234A1, “ANTIMICROBIAL PEPTIDOMIMETICS” (SPEXIS AG, priority 2020, published 2023).
Peptide text beside a SMILES is read from it.

Columns and labels:
[1] = tested on: Escherichia coli ATCC 25922; conditions: ATCC 25922
Procedure, shortened: (§1)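 Broth microdilution; cation-adjusted MHII; inoculum ~5×10^5 CFU/mL from 0.5 McFarland saline suspension; peptide two-fold serial dilutions; polysorbate 80 0.002% final; peptide stock 1 mg/mL in water.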

[2] = tested on: Escherichia coli MCR-1 Af 45; conditions: Mueller-Hinton broth II, 18-20 hours at 35° C.
Procedure, shortened: as §1

[3] = tested on: Klebsiella pneumoniae SSI3010; conditions: SSI3010
Procedure, shortened: as §1

[4] = tested on: human red blood cells (hRBC); assay: Hemolysis of human red blood cells; type: cell-based; conditions: red cells of human, 1 h
Procedure, shortened: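 PBS-washed human red blood cells (20% v/v) were incubated with peptide at 200 μg/mL for 1 h at 37 °C with shaking. Supernatant OD was read at 540 nm after 8-fold dilution. Hemolysis is expressed as percent of the water control.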

SMILES	Escherichia coli ATCC 25922 MIC [1] [µg/mL]	Escherichia coli MCR-1 Af 45 MIC [2] [µg/mL]	Klebsiella pneumoniae SSI3010 MIC [3] [µg/mL]	Hemolysis at 0.2 g/L [4] [%]
CC[C@H](C)[C@H](NC(=O)[C@@H](NC(=O)[C@@H]1C[C@@H](O)CN1C(=O)[C@@H](N)C(C)C)[C@@H](C)CC)C(=O)N[C@@H](Cc1ccc(O)cc1)C(=O)N[C@H]1CSSC[C@@H](C(=O)N[C@@H](CCN)C(=O)N[C@@H](CCCNC(=N)N)C(=O)N[C@@H](Cc2ccc(O)cc2)C(=O)O)NC(=O)[C@H](CCCCN)NC(=O)[C@@H](CCN)NC(=O)[C@H]([C@@H](C)O)NC(=O)[C@H](CCN)NC(=O)[C@H](CCCNC(=N)N)NC(=O)[C@H](CC(N)=O)NC1=O [Example 143] (HELM PEPTIDE1{V.[Hyp].I.I.Y.C.N.R.[Dab].T.[NCC[C@@H](N[*:1])C(=O)[*:2]].K.C.[Dab].R.Y}$PEPTIDE1,PEPTIDE1,6:R3-13:R3$$$V2.0)	0.0625	0.03125	0.125	0
CC[C@H](C)[C@H](NC(=O)[C@@H]1CCCN1C(=O)[C@@H](N)C(C)C)C(=O)N[C@H](C(=O)N[C@@H](Cc1ccc(O)cc1)C(=O)N[C@H]1CSSC[C@@H](C(=O)N[C@@H](CCN)C(=O)N[C@@H](CCCNC(=N)N)C(=O)N[C@@H](Cc2ccc(O)cc2)C(=O)O)NC(=O)[C@H](CCCCN)NC(=O)[C@@H](CCN)NC(=O)[C@H]([C@@H](C)O)NC(=O)[C@H](CCN)NC(=O)[C@H](CCCNC(=N)N)NC(=O)[C@H](CC(N)=O)NC1=O)[C@@H](C)O [Example 144] (HELM PEPTIDE1{V.P.I.T.Y.C.N.R.[Dab].T.[NCC[C@@H](N[*:1])C(=O)[*:2]].K.C.[Dab].R.Y}$PEPTIDE1,PEPTIDE1,6:R3-13:R3$$$V2.0)	0.0625	0.25	0.125	0
CC[C@H](C)[C@H](NC(=O)[C@@H]1CCCN1C(=O)[C@@H](N)C(C)C)C(=O)N[C@@H](Cc1ccccc1)C(=O)N[C@@H](Cc1ccc(O)cc1)C(=O)N[C@H]1CSSC[C@@H](C(=O)N[C@@H](CCN)C(=O)N[C@@H](CCCNC(=N)N)C(=O)N[C@@H](Cc2ccc(O)cc2)C(=O)O)NC(=O)[C@H](CCCCN)NC(=O)[C@@H](CCN)NC(=O)[C@H]([C@@H](C)O)NC(=O)[C@H](CCN)NC(=O)[C@H](CCCNC(=N)N)NC(=O)[C@H](CC(N)=O)NC1=O [Example 145] (HELM PEPTIDE1{V.P.I.F.Y.C.N.R.[Dab].T.[NCC[C@@H](N[*:1])C(=O)[*:2]].K.C.[Dab].R.Y}$PEPTIDE1,PEPTIDE1,6:R3-13:R3$$$V2.0)	0.0625	0.0625	0.125	0
CC[C@H](C)[C@H](NC(=O)[C@@H](NC(=O)[C@@H]1CCCN1C(=O)[C@@H](O)C(C)C)[C@@H](C)CC)C(=O)N[C@@H](Cc1ccc(O)cc1)C(=O)N[C@H]1CSSC[C@@H](C(=O)N[C@@H](CCN)C(=O)N[C@@H](CCCNC(=N)N)C(=O)N[C@@H](Cc2ccc(O)cc2)C(=O)O)NC(=O)[C@H](CCCCN)NC(=O)[C@@H](CCN)NC(=O)[C@H]([C@@H](C)O)NC(=O)[C@H](CCN)NC(=O)[C@H](CCCNC(=N)N)NC(=O)[C@H](CC(N)=O)NC1=O [Example 146] (HELM PEPTIDE1{[CC(C)[C@H](O)C(=O)[*:2]].P.I.I.Y.C.N.R.[Dab].T.[NCC[C@@H](N[*:1])C(=O)[*:2]].K.C.[Dab].R.Y}$PEPTIDE1,PEPTIDE1,6:R3-13:R3$$$V2.0)	0.5	0.5	0.5	0
